Experiment [1] has as its system UVB-induced reactive oxygen species (ROS) in keratinocytes. The experiment can be described thus: Scavenging of UVB-induced reactive oxygen species (DCFH-DA fluorescence). To be noted: UVB 30 mJ/cm^2, relative to UV-treated control. In kind it is cell-based. The text has this: 2′,7′-Dichlorodihydrofluorescein diacetate (DCFH-DA; Molecular Probes, Inc., OR, USA) was used to evaluate the coumestrol's effect of scavenging UVB-induced ROS. DCFH-DA is an fat-soluble substance well known as a detector of ROS in cells. It is easily absorbed by cells and turned into water-soluble 2′,7′-dichlorodihydrofluorescein as a result of hydrolysis of the acetate group by esterase in the cells. Since it is turned to 2′,7′-dichlorofluorescein (DCF) which emits fluorescence after reaction with intracellular oxidizing agents, the quantity of intracellular ROS can be evaluated by measuring the intensity of fluorescence from cells treated with DCFH-DA.
Keratinocytes (acquired from Dr. Fusenig at German Cancer Research Center) were seeded onto a 96-well black plate (Greiner BioOne Inc., NC, USA) for fluorescence measurement at a density of 1×10^4 cells per well and cultured for 24 hours. Then, the cells were treated with coumestrol diluted in fresh FBS-free medium to a final concentration of 0.01, 0.1 or 1 μM. After addition of the test substance, the cells were cultured for 24 hours. After removing the remaining medium by washing with HEPES-buffered control salt solution (HCSS), 20 μM DCFH-DA in 100 μL of HCSS was added. […] Then, after adding 100 μL of HCSS, the cells were irradiated with UVB of 30 mJ/cm^2 to induce production of ROS. […] The fluorescence intensity of DCF was measured with the Wallac VICTOR2 fluorometer (Wallac, Turku, Finland) at excitation wavelength of 485 nm and emission wavelength of 530 nm. ROS scavenging effect (%) relative to the control group was calculated from the measured fluorescence intensity.

The test system of another experiment is Cyclooxygenase-2 (COX-2). The experiment can be described thus: Inhibition of COX-2 biosynthesis induced by LPS (western blotting). In kind it is cell-based. To be noted: human fibroblasts, 24 hours. As for the experimental part:
Human fibroblasts (CAS-C-004-5C, Invitrogen, CA, USA) were used to evaluate the coumestrol's effect of inhibiting COX-2 biosynthesis. The cells were seeded onto a 6-well plate at a density of 5×10^4 cells per well and cultured for about 24 hours in a medium containing 10% FBS until ˜80% confluency. The cells were treated with coumestrol diluted to a final concentration of 0.01, 0.1 or 1 μM in a fresh FBS-free medium and then cultured for 24 hours at 37° C. in a 5% (v/v) CO2 incubator. The cells were harvested and the produced COX-2 was quantitated by western blotting.
(In general: Immunoblotting shows a protein as a band on a membrane.)

Experiment [2] has as its system transepidermal water loss. Briefly: Skin moisturization: transepidermal water loss. Format: in vivo, human. To be noted: ointment containing 0.1% coumestrol, 24° C., RH 40%. From the text: They were asked to apply the ointment for 12 weeks, twice a day, at the sites of atopic symptoms. 12 weeks later, the improvement of the atopic symptoms was examined using a questionnaire. Improvement of typical symptoms of atopic dermatitis including “itchiness”, “dryness”, “keratinization”, “dandruff”, “erythema”, “swelling”, “skin fissure” and “ooze and eczema” was examined. The subjects were asked to score the improvement of the symptoms and the result was averaged to evaluate the improvement of atopic dermatitis. In order to evaluate the improvement of skin moisturizing ability, transepidermal water loss was measured for the subjects of Test Example 9 under constant-temperature, constant-humidity conditions (24° C., RH 40%) using a […].

Experiment [3] has as its system advanced glycation end product (AGE) in human fibroblasts. Briefly: Inhibition of glycation of skin cells (AGE ELISA). In kind it is cell-based. To be noted: 2.5 μM, UVB 50 mJ/cm^2, 24 hours, untreated control 0.156. As to the method:
(§1) Human fibroblasts (CAS-C-004-5C, Invitrogen, CA, USA) were used to evaluate the coumestrol's effect of inhibiting glycation of skin cells. The cells were seeded onto a 6-well plate at a density of 5×10^4 cells per well and cultured for about 24 hours in a medium containing 10% FBS until ˜about 80% confluency. After washing once with PBS and adding 100 μL of PBS, the cells were irradiated with UVB of 50 mJ/cm^2. After removing the PBS, the cells were treated with coumestrol diluted to a final concentration of 2.5 μM in a fresh FBS-free medium. Glycation of skin cells was evaluated using the Oxiselect™ advanced glycation end product (AGE) ELISA kit 24 hours after the treatment with the test substance.

In another experiment the test system is atopic symptoms. The experiment can be described thus: Improvement of atopic dermatitis (questionnaire, 12 weeks of ointment). In kind it is in vivo, human. To be noted: ointment containing 0.1% coumestrol, twice a day, people with atopic symptoms. From the text:
They were asked to apply the ointment for 12 weeks, twice a day, at the sites of atopic symptoms. 12 weeks later, the improvement of the atopic symptoms was examined using a questionnaire. Improvement of typical symptoms of atopic dermatitis including “itchiness”, “dryness”, “keratinization”, “dandruff”, “erythema”, “swelling”, “skin fissure” and “ooze and eczema” was examined. The subjects were asked to score the improvement of the symptoms and the result was averaged to evaluate the improvement of atopic dermatitis.

Experiment [4] deals with ATP production in human fibroblasts. Briefly: ATP production in cells (ATP determination kit). In kind it is cell-based. To be noted: 2.5 μM; human fibroblasts treated as in Test Example 4; untreated control 803. As for the experimental part: as §1
Following treatment of human fibroblasts (CAS-C-004-5C, Invitrogen, CA, USA) as in Test Example 4, ATP production in the cells was evaluated using an ATP determination kit (Invitrogen, A22066).

The subject of experiment [5] is prostaglandin E2 production in human fibroblasts. The experiment can be described thus: Inhibition of prostaglandin E2 (PGE2) production. Format: cell-based. The following applies: Fibroblast, A23187 and arachidonic acid stimulation, relative to coumestrol-untreated group, average of 5, read-out: Prostaglandin E2 production inhibiting effect (%). As for the experimental part: The coumestrol's effect of inhibiting prostaglandin E2 production was tested as follows. Human fibroblasts (CAS-C-004-5C, Invitrogen, CA, USA) were cultured for 24 hours in a CO2 incubator. After replacing the medium with a fresh FBS-free medium and culturing for 2 hours, the cells were treated with coumestrol diluted to a final concentration of 0.01, 0.1 or 1 μM in a fresh FBS-free medium. The cells were then cultured for 2 hours at 37° C. in a 5% (v/v) CO2 incubator. Subsequently, after treating with 50 μM Calcium Ionophore A23187 and arachidonic acid for 5 minutes to stimulate prostaglandin E2, the cells were lysed and prostaglandin E2 was quantitated by measuring absorbance at 450 nm using an ELISA reader. The inhibiting effect (%) was calculated relative to the coumestrol-untreated group. Measurement was made 5 times and the result was averaged.

For a further experiment, the system named is MMP-1. The experiment can be described thus: Inhibition of UV-induced MMP-1 expression (ELISA). Format: cell-based. To be noted: Fibroblast, light or radiation study, human fibroblasts, UVB 15 mJ/cm^2, 48 hours, untreated control 100, UV-treated control 132, read-out: MMP1 activity (%). As for the experimental part:
Human fibroblasts (CAS-C-004-5C, Invitrogen, CA, USA) were used to evaluate the coumestrol's effect of inhibiting UV-induced MMP-1 expression. The cells were seeded onto a 24-well plate at a density of 1×10^4 cells per well and cultured for about 24 hours in a medium containing 10% FBS until ˜about 80% confluency. After replacing the medium with an FBS-free medium, the cells were cultured for 24 hours. After washing once with PBS and adding 100 μL of PBS, the cells were irradiated with UVB of 15 mJ/cm^2. After removing the PBS, the cells were treated with coumestrol diluted to a final concentration of 0.01, 0.1 or 1 μM in a fresh FBS-free medium. Expression of MMP-1 was evaluated 48 hours after the treatment with the test substance. The expression of MMP-1 was evaluated using an enzyme-linked immunosorbent assay (ELISA) kit (RPN 2610; Biotrak Amersham Pharmacia Biotech, UK) after collecting a supernatant from the cell culture. The quantity of MMP-1 was determined from the total protein quantity.
For orientation: In an ELISA, binding on a coated surface is turned into a signal by an enzyme label.

Another experiment concerns type I pN collagen. The experiment can be described thus: Type I pN collagen synthesis (PIP EIA kit). In kind it is cell-based. The following applies: human fibroblasts, 48 hours, untreated control 100. As to the method:
Human fibroblasts (CAS-C-004-5C, Invitrogen, CA, USA) were used to evaluate the coumestrol's effect on type I pN collagen synthesis. The cells were seeded onto a 24-well plate at a density of 1×10^4 cells per well and cultured for about 24 hours in a medium containing 10% FBS until ˜about 80% confluency. The cells were treated with coumestrol diluted to a final concentration of 0.01, 0.1 or 1 μM in a fresh FBS-free medium. The synthesized quantity of type I pN collagen was measured using a procollagen type I C-peptide (PIP) EIA kit (MK101; Takara Shuzo, Kyoto, Japan) by collecting a supernatant from the cell culture 48 hours after the treatment with the test substance. The quantity of type I pN collagen was determined from the total protein quantity.

The test system of experiment [6] is Mouse melanocytes (MeI-Ab cells). Briefly: Inhibition of melanin production. Format: cell-based. The following applies: Melanocyte, read-out: Melanin production inhibiting effect (%).

As to `O=c1oc2cc(O)ccc2c2oc3cc(O)ccc3c12` [Coumestrol, 3,9-dihydroxy-6H-benzofuro(3,2-c)(1)benzopyran-6-one], the “ROS scavenging effect (%)” value in experiment [1] (0.01 μM) is 18.7%; in experiment [1] (0.1 μM), 25.6%; in [1] (1 μM), 55.1%. Also, the “COX-2 expression level (% relative to control)” value with Cyclooxygenase-2 (COX-2) (0.01 μM) is 89 % relative to control; in the experiment on Cyclooxygenase-2 (COX-2) (0.1 μM), 81 % relative to control; in the experiment with Cyclooxygenase-2 (COX-2) (1 μM) it was 64 % relative to control. Also, the “Transepidermal water loss (%)” value in [2] (1 week later, control 34) is given as 30%; in experiment [2] (4 weeks later, control 39), 32%; in [2] (8 weeks later, control 41), 26%; in experiment [2] (12 weeks later, control 36), 15%. The “Concentration of glycation end product” value in experiment [3] turned out to be 0.077 µg/mL. For the same compound, the “Number of subjects Aggravated” value with atopic symptoms came out at 0. Moreover, the “Number of subjects Improved” value in the experiment with atopic symptoms came to 8. In the experiment with atopic symptoms, the “Number of subjects Not changed” value is recorded as 2. Besides, in the experiment on atopic symptoms, the “Number of subjects Remarkably improved” value was 5. Moreover, in experiment [4], the “Concentration of ATP” value was 917 nM. Also, the inhibition at 0.01 µM in [5] (0.01 μM) stood at 12.8%; in experiment [6], 1.2%. The inhibition at 0.1 µM in [5] (0.1 μM) turned out to be 24.8%; in experiment [6], 24.4%. The figures for the inhibition at 1 µM in experiment [5] (1 μM) and in experiment [6] were 38.2% and 30.1%, respectively. Further, the activity at 0.01 µM in the experiment on MMP-1 (0.01 μM) was 115%. Also, the activity at 0.1 µM with MMP-1 (0.1 μM) was 102%. Further, the activity at 1 µM with MMP-1 (1 μM) stood at 98%. Further, the “Synthesis of type I pN collagen (%)” value with type I pN collagen (0.01 μM) was found to be 115%; with type I pN collagen (0.1 μM) it was 126%; in the experiment with type I pN collagen (1 μM) it was 129%.
`Oc1ccc(O)cc1` [Hydroquinone, hydroquinone, reference compound]: the inhibition at 10 µM in experiment [6] (10 μM (positive control), MeI-Ab cells) stood at 41.1%.

The values are drawn from patent US9265707B2, “Cosmetic composition comprising coumestrol or a bean extract containing coumestrol for skin care” (AMOREPACIFIC CORPORATION, priority 2010, dated 2016).
